Columns and labels:
[1] = system: MKN-45; assay: Flow cytometry cell cycle analysis; assay type: cell-based, Human; details: dose titration, 24 hours
Method: (§1) Bromodeoxyuridine (BrdU) labeling reagent was added to cells for the final two hours of compound treatment. Cells were then washed with PBS and treated with trypsin to release from the bottom of the plate. Cells were washed and fixed in 90% methanol at −20° C. overnight. Cells were then washed and treated with 2N HCl and 0.5% triton X-100 to denature the DNA, followed by a wash and staining with anti-BrdU Alexa-647 and anti-Cleaved-Caspase-3 FITC antibodies. Finally cells were subjected to RNase treatment and propidium iodide staining. Cells were then analyzed on an LSRII flow cytometer.
(§2) The anti-BrdU Alexa-647 antibody was purchased from Invitrogen (Carlsbad, Calif.). The anti-cleaved-caspase-3 FITC antibody was purchased from BD Pharmingen (San Jose, Calif.).
(§3) Flow cytometry cell cycle analysis of MET amplified gastric cancer cell line MKN-45 is represented in FIG. 6. […] BrdU labeling was performed during the final 2 hours of compound treatment. Cells were then harvested, fixed, permeabilized and stained with BrdU and caspase-3 antibodies, followed by treatment with RNase and propidium iodide. Cells were then analyzed by flow cytometry to document effects on the cell cycle. […] Flow cytometry cell cycle analysis of MET amplified gastric cancer cell line SNU620 are represented in FIG. 6B. SNU 620 cells were treated as described above. […] Subsequent lysates were analyzed by SDS-PAGE and immunoblot using antibodies detecting cleaved PARP, cleaved caspase-3 and β-actin.

[2] = system: SNU620; assay: Flow cytometry cell cycle analysis; assay type: cell-based, Human; details: SNU 620; dose titration, 24 hours
Method: as §1, §2, §3

[3] = system: TPR-MET xenografts; assay: animal or person
Method: Nude mice bearing established TPR-MET xenografts were treated with Compound Mat doses of 0.1, 0.5, 0.75, 1, 2, 3, or 10 mg/kg. Three hours post dose, tumors were excised and flash frozen in liquid nitrogen. Tumors were then homogenized in lysis buffer containing protease and phosphatase inhibitors. Lysates were then processed per the SDS-PAGE and Immunoblotting protocol.
Tumors were harvested 3 hours post dose and tumor lysates prepared for analysis by SDS-PAGE and immunoblot using antibodies to phospho-Gab1 and β-actin. Phospho-Gab1 levels were quantified using a chemiluminescent imaging system.

[4] = system: MET amplified SNU5 gastric cancer tumor xenograft; assay: SNU5 gastric cancer tumor xenograft model; assay type: in vivo, athymic nude mice; details: 0.3, 1, 3 and 10 mg/kg oral gavage once daily
Method: Animals. Female athymic nude mice 6 weeks of age were obtained from Harlan Laboratories (Indianapolis, Ind.). Animals were housed in sterilized caging and received Harlan Teklad autoclavable or irradiated rodent diet and water ad libitum. All of the procedures were conducted as described in an animal care and use protocol approved by Amgen's Institutional Animal Care and Use Committee. The program of animal care is fully accredited by the Association for Assessment and Accreditation of Laboratory Animal Care International.
Xenograft Studies. MKN45 (3×106 with Matrigel at a ratio of 2:1), SNU-5 (5×106 with Matrigel at a ratio of 2:1) cells were injected subcutaneously in the right flank of female athymic nude mice (n=10 per group). […] All mice were dosed by oral gavage once daily. Tumor volume was measured twice weekly with a Pro-Max Fowler Digital Ultra Caliper (Fred Fowler Co., Inc.) as length (mm)×width (mm)×height (mm) and expressed as cubic millimeters. Data are expressed as mean±standard error for each group and plotted as a function of time. The statistical significance of observed differences between growth curves was evaluated by repeated measures ANOVA followed by Dunnett's post hoc test.
Tumor volumes were measured twice weekly until the conclusion of the study.

[5] = system: human HCC cell lines; assay: HCC cell proliferation assay (CellTiter-Glo, 72 h); assay type: cell-based
Method: All human HCC cell lines were purchased from the American Type Culture Collection (ATCC), Japanese Collection of Research Bioresources (JCRB), Korean Cell line Bank (KCLB), Shanghai Institutes of Biological Sciences (SIBS), Zhongshan Hospital Fudan University (ZHFU), and routinely cultured in 96-well plates in ATCC's recommended growth media in the temperature of 37° C., 5% CO2 and 95% humidity. […] Luminescence was measured with a PerkinElmer EnVision® plate reader. Data will not be normalized to a control compound, rather POC (percent of control). POC=(compound treated signal/DMSO treated signal)*100. POC values were processed with the software of GraphPad Prism version 5 to calculate the absolute IC50. Time 0 (T0) reported as broken line on dose response curves were shown in the curve fitting as the percent of the net T3 DMSO control.
The fluorescence in situ hybridization (FISH) analysis and immunohistochemistry (IHC) staining were used to confirm c-MET amplification and high protein expression. The six sensitive and non-sensitive cell lines were selected, including MHCC97H, HCCLM3, JHH-4, JHH-5, SNU-398 and Hep3B. MHCC97H and HCCLM3 cell lines also had high levels of total MET with strong membrane staining (IHC 3+) and MET gene amplification (MET/CEP7>2.0), which were identified as Met-positive HCC. […]

## COCCOc1cnc2ccn([C@H](C)c3nnc4c(F)cc(-c5cnn(C)c5)cn34)c(=O)c2c1 [Compound M, 6-{(1R)-1-[8-fluoro-6-(1-methyl-1H-pyrazol-4-yl)[1,2,4]triazolo[4,3-a]pyridin-3-yl]ethyl}-3-(2-methoxyethoxy)-1,6-naphthyridin-5(6H)-one]
[1]
  S-phase positive cells (BrdU+): corresponding reduction
  percentage of cells in the G1 phase of the cell cycle: dose dependent increase
[2]
  subG1/Caspase-3+ cells (cell killing): robust induction
[3]; Mus musculus, 3 h, read-out: inhibition of phospho-Gab1
  inhibition at 1 mg/kg: > 90%
[3]; TPR-Met xenograft model
  average exposure shown to inhibit c-Met activity by 90%: 0.154 µg/mL
[4]
  anti-tumor efficacy: robust dose dependent anti-tumor efficacy
[5]; HCC cell lines with total c-MET IHC 2+, 1+ or 0
  drug sensitivity: did not show dramatic drug sensitivity
[5]; Met-positive HCC (MHCC97H, HCCLM3: IHC 3+, MET/CEP7>2.0)
  response to Compound M: significant and favorable response

From US10328062B2, “Biomarkers and use of MET inhibitor for treatment of cancer” (AMGEN, INC., priority 2014, dated 2019)
